From patent publication US20230257365A1, “SMALL MOLECULE ANDROGEN RECEPTOR PROTEIN DEGRADERS” (THE REGENTS OF THE UNIVERSITY OF MICHIGAN, priority 2020, published 2023) come the findings set out here.

The target of the assay is T1, AR protein (Homo sapiens, UniProt P10275).
T1 construct: endogenous in cells; host or cells: VCaP
T1 sequence (P10275 1-920): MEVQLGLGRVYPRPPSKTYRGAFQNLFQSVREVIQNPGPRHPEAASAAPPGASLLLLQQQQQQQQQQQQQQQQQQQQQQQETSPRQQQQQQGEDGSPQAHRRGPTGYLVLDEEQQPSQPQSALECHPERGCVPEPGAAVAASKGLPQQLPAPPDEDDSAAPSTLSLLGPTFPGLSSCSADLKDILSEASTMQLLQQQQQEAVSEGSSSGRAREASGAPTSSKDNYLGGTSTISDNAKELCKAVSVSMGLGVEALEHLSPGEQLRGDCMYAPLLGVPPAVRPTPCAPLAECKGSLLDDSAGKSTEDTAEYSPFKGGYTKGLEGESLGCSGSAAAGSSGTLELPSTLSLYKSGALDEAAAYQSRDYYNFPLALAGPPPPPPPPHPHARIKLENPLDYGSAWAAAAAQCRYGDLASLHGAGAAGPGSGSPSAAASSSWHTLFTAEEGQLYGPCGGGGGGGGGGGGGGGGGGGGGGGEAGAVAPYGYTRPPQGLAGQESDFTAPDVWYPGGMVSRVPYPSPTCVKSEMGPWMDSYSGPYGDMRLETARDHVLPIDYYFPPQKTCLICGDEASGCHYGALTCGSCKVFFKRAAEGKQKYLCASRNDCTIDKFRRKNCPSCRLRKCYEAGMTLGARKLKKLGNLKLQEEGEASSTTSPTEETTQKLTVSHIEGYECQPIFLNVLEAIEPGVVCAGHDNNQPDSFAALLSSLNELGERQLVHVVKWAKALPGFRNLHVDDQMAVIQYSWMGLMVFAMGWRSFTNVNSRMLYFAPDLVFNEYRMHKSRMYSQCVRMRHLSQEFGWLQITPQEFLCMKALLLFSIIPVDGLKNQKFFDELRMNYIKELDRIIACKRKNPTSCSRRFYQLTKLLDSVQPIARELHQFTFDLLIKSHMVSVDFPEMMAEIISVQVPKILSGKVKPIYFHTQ
Put plainly: AR protein degradation by western blotting in VCaP cells. Type of assay: cell-based. The protocol:
The appropriate cell line, e.g., prostate cancer LNCaP, Vcap, or MDA-MB-453, cell line, was treated with Compounds of the Disclosure. The treated cells were lysed with RIPA buffer. The AR level in the cell lysates was examined by western blotting and a specific AR antibody (ab 194196, Abeam, Cambridge, Mass. 02139) with concentration of 1:20,000. GAPDH was used as a loading control.
Bands were quantified with ImageJ software. The relative numbers of each band obtained from normalization with its corresponding GAPDH level were compared with Prism 8 software. The DC50 values were produced from Prism 8, and the DC90 values were calculated with an equation=Bottom+(Top−Bottom)/(1+10^((Log EC50−X)*HillSlope) based on DC50 and Hillslope values.
The amount of AR protein degradation in LNCap, VCap, and MDA-MB-453 cells caused representative Compounds of the Disclosure at the concentrations indicated is presented in Table 4.
A general note: A western blot detects proteins with antibodies after separation by electrophoresis.

Structures are written as SMILES.

For `N#Cc1ccc(-c2ccn(Cc3ccc(C(=O)N4CCN(C5CCN(c6ccc7c(c6)C(=O)N(C6CCC(=O)NC6=O)C7=O)CC5)CC4)cc3)n2)cc1Cl` (stereo not drawn) [compound 338, 2-chloro-4-(1-(4-(4-(1-(2-(2,6-dioxopiperidin-3-yl)-1,3-dioxoisoindolin-5-yl)piperidin-4-yl)piperazine-1-carbonyl)benzyl)-1H-pyrazol-3-yl)benzonitrile], the “% AR protein degradation in VCaP Cells” value by setting is: (0.001 μM) −1%; (0.01 μM) −12%; (0.1 μM) 8%; (1 μM) 93%.

`N#Cc1ccc(OC2CCCN(C(=O)c3ccc(N4CCC(N5CCN(c6ccc7c(c6)C(=O)N(C6CCC(=O)NC6=O)C7=O)CC5)CC4)cc3)CC2)cc1Cl` (stereo not drawn) [compound 337, 2-chloro-4-((1-(4-(4-(4-(2-(2,6-dioxopiperidin-3-yl)-1,3-dioxoisoindolin-5-yl)piperazin-1-yl)piperidin-1-yl)benzoyl)azepan-4-yl)oxy)benzonitrile]: the “% AR protein degradation in VCaP Cells” value reads like this: (0.001 μM) 18%; (0.01 μM) 12%; (0.1 μM) 9%; (1 μM) 29%.

Take `N#Cc1ccc(OC2CCN(C(=O)c3ccc(N4CCC(N5CCN(c6ccc7c(c6)C(=O)N(C6CCC(=O)NC6=O)C7=O)CC5)CC4)cc3)CC2)cc1Cl` (stereo not drawn) [compound 336, 2-chloro-4-((1-(4-(4-(4-(2-(2,6-dioxopiperidin-3-yl)-1,3-dioxoisoindolin-5-yl)piperazin-1-yl)piperidin-1-yl)benzoyl)piperidin-4-yl)oxy)benzonitrile]: the “% AR protein degradation in VCaP Cells” value reads like this: (0.001 μM) 3%; (0.01 μM) −5%; (0.1 μM) −5%; (1 μM) 4%.
